System: patients with advanced solid tumors
Assay: Phase I trial: safety, tolerability, DLT, MTD (CTCAE v4.0)
Assay type: in vivo
Excerpt: Eligible patients had at least one measurable lesion per RECIST v 1.1, Eastern Cooperative Oncology Group (ECOG) performance status of 0 or 1, and adequate hematological, renal, cardiac and hepatic functions. The primary objectives were to assess safety and tolerability as well as to determine the MTD, DLT, and dose recommended for further study. The secondary objectives were to assess the PK and preliminary efficacy of CT053PTSA.
An initial accelerated titration design was used in the 15 and 30 mg QD cohorts, and the “3+3” schema was used starting in the 60 mg QD cohort. […] The study protocol was approved by an institutional review board at Sun Yat-sen University Cancer Center. Written informed consent was obtained from all the patients before enrollment.
Descriptive statistics of safety are presented per CTCAE v4.0. Subjects who received at least one dose of CT053PTSA were considered eligible to be evaluated and included in safety analyses. […] According to the RECIST 1.1 criteria, imaging examinations were performed at each specified time point in the protocol. The antitumor activity was measured by RECIST1.1.

Cc1c(C(=O)Nc2ccc(Oc3ccnc4cc(OCC(C)(C)O)ccc34)c(F)c2)c(=O)n(-c2ccccc2)n1C [CT053PTSA]
1 (16.7) n (%): Electrocardiogram QT prolonged, All (60mg (n = 6)) | Platelet count decreased, All (60mg (n = 6)) | leukopenia, All (60mg (n = 6)) | neutropenia, All (60mg (n = 6))
0 n (%): Nausea, All (30mg (n = 1)) | Nausea, ≥ G3 (30mg (n = 1)) | Oropharyngeal pain, All (30mg (n = 1)) | Oropharyngeal pain, ≥ G3 (30mg (n = 1)) | Pain, All (30mg (n = 1)) | Pain, ≥ G3 (30mg (n = 1)) | Palmar-plantar erythrodysaesthesia syndrome, All (30mg (n = 1)) | Palmar-plantar erythrodysaesthesia syndrome, ≥ G3 (30mg (n = 1)) | Platelet count decreased, All (30mg (n = 1)) | Platelet count decreased, ≥ G3 (30mg (n = 1)) | Proteinuria, All (30mg (n = 1)) | Proteinuria, ≥ G3 (30mg (n = 1)) | Pyrexia, All (30mg (n = 1)) | Pyrexia, ≥ G3 (30mg (n = 1)) | Sinus bradycardia, All (30mg (n = 1)) | Sinus bradycardia, ≥ G3 (30mg (n = 1)) | Stomatitis, All (30mg (n = 1)) | Stomatitis, ≥ G3 (30mg (n = 1)) | Vomiting, All (30mg (n = 1)) | Vomiting, ≥ G3 (30mg (n = 1)) | leukopenia, All (30mg (n = 1)) | leukopenia, ≥ G3 (30mg (n = 1)) | neutropenia, All (30mg (n = 1)) | neutropenia, ≥ G3 (30mg (n = 1)) | transaminase elevation, All (30mg (n = 1)) | transaminase elevation, ≥ G3 (30mg (n = 1)) | Anaemia, All (60mg (n = 6)) | Anaemia, ≥ G3 (60mg (n = 6)) | Blood chloride decreased, All (60mg (n = 6)) | Blood chloride decreased, ≥ G3 (60mg (n = 6)) | Blood creatinine increased, All (60mg (n = 6)) | Blood creatinine increased, ≥ G3 (60mg (n = 6)) | Blood potassium decreased, All (60mg (n = 6)) | Blood potassium decreased, ≥ G3 (60mg (n = 6)) | Blood sodium decreased, All (60mg (n = 6)) | Blood sodium decreased, ≥ G3 (60mg (n = 6)) | Blood uric acid increased, All (60mg (n = 6)) | Blood uric acid increased, ≥ G3 (60mg (n = 6)) | Decreased appetite, All (60mg (n = 6)) | Decreased appetite, ≥ G3 (60mg (n = 6)) | Diarrhea, All (60mg (n = 6)) | Diarrhea, ≥ G3 (60mg (n = 6)) | Dizziness, All (60mg (n = 6)) | Dizziness, ≥ G3 (60mg (n = 6)) | Dry mouth, All (60mg (n = 6)) | Dry mouth, ≥ G3 (60mg (n = 6)) | Electrocardiogram QT prolonged, ≥ G3 (60mg (n = 6)) | Electrolyte imbalance, All (60mg (n = 6)) | Electrolyte imbalance, ≥ G3 (60mg (n = 6)) | Hemoglobin decreased, All (60mg (n = 6)) | Hemoglobin decreased, ≥ G3 (60mg (n = 6)) | Hypertension, All (60mg (n = 6)) | Hypertension, ≥ G3 (60mg (n = 6)) | Hyponatremia, All (60mg (n = 6)) | Hyponatremia, ≥ G3 (60mg (n = 6)) | Hypoparathyroidism, All (60mg (n = 6)) | Hypoparathyroidism, ≥ G3 (60mg (n = 6)) | Mouth ulceration, All (60mg (n = 6)) | Mouth ulceration, ≥ G3 (60mg (n = 6)) | Nausea, All (60mg (n = 6)) | Nausea, ≥ G3 (60mg (n = 6)) | Oropharyngeal pain, All (60mg (n = 6)) | Oropharyngeal pain, ≥ G3 (60mg (n = 6)) | Pain, All (60mg (n = 6)) | Pain, ≥ G3 (60mg (n = 6)) | Palmar-plantar erythrodysaesthesia syndrome, All (60mg (n = 6)) | Palmar-plantar erythrodysaesthesia syndrome, ≥ G3 (60mg (n = 6)) | Platelet count decreased, ≥ G3 (60mg (n = 6)) | Proteinuria, All (60mg (n = 6)) | Proteinuria, ≥ G3 (60mg (n = 6)) | Pyrexia, All (60mg (n = 6)) | Pyrexia, ≥ G3 (60mg (n = 6)) | Sinus bradycardia, All (60mg (n = 6)) | Sinus bradycardia, ≥ G3 (60mg (n = 6)) | Stomatitis, All (60mg (n = 6)) | Stomatitis, ≥ G3 (60mg (n = 6)) | Vomiting, All (60mg (n = 6)) | Vomiting, ≥ G3 (60mg (n = 6)) | leukopenia, ≥ G3 (60mg (n = 6)) | neutropenia, ≥ G3 (60mg (n = 6)) | transaminase elevation, ≥ G3 (60mg (n = 6)) | Anaemia, ≥ G3 (100mg (n = 7)) | Blood chloride decreased, ≥ G3 (100mg (n = 7)) | Blood creatinine increased, All (100mg (n = 7)) | Blood creatinine increased, ≥ G3 (100mg (n = 7)) | Blood potassium decreased, All (100mg (n = 7)) | Blood potassium decreased, ≥ G3 (100mg (n = 7)) | Blood sodium decreased, All (100mg (n = 7))
1 (14.3) n (%): Anaemia, All (100mg (n = 7)) | Blood chloride decreased, All (100mg (n = 7))
3 (50) n (%): transaminase elevation, All (60mg (n = 6))

Source: paper PMC9632963, “Preclinical characterization and phase I clinical trial of CT053PTSA targets MET, AXL, and VEGFR2 in patients with advanced solid tumors” (Frontiers in Immunology, 2022)
